Measurements taken from the supplement of paper PMC12513837.
± gives the standard deviation of the averaged measurements.

compound: CC(=O)N1CCc2c(c(N3CCCc4cc(-c5cnn(C)c5)c(C(F)F)cc43)nn2C2CCC(CN3CCN(c4ccc5c(c4)C(=O)N(C4CCC(=O)NC4=O)C5=O)CC3)CC2)C1 [CBPD-409]; assay: AUC of viability dose-response curve (relative to vehicle, 8 doses up to 10 µM) (fraction); higher = less sensitive (more viable); extreme values may be limits of the assay
Experimental: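 PRISM multiplexed pooled barcoded cell line viability screen at the Broad Institute, 887 cancer cell lines treated with CBPD-409 (p300/CBP PROTAC degrader) at 8 concentrations in threefold dilution, top dose 10 µM. The read-out is the area under the dose-response curve of relative viability versus vehicle (n=3). AUC < 0.3 is called strongly sensitive and AUC > 0.8 resistant.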

| Test System | AUC of viability dose-response curve |
| --- | --- |
| 8MGBA_CENTRAL_NERVOUS_SYSTEM | 0.79 |
| 22RV1_PROSTATE | 0.189 |
| 42MGBA_CENTRAL_NERVOUS_SYSTEM | 0.485 |
| 93T449_SOFT_TISSUE | 1 |
| 94T778_SOFT_TISSUE | 0.951 |
| 95T1000_SOFT_TISSUE | 0.44 |
| 143B_BONE | 1 |
| 253JBV_URINARY_TRACT | 1 |
| 253J_URINARY_TRACT | 1 |
| 639V_URINARY_TRACT | 0.515 |
| 647V_URINARY_TRACT | 0.394 |
| 697_HAEMATOPOIETIC_AND_LYMPHOID_TISSUE | 0.293 |
| 769P_KIDNEY | 0.395 |
| 786O_KIDNEY | 0.84 |
| 921_UVEA | 0.336 |
| 1618K_TESTIS | 0.518 |
| 1777NRPMET_TESTIS | 0.655 |
| 5637_URINARY_TRACT | 1 |
| 8305C_THYROID | 0.823 |
| 8505C_THYROID | 0.943 |
| 9505BIK_PANCREAS | 1 |
| 2313287_STOMACH | 0.631 |
| A3KAW_HAEMATOPOIETIC_AND_LYMPHOID_TISSUE | 0.325 |
| A101D_SKIN | 1 |
| A172_CENTRAL_NERVOUS_SYSTEM | 0.797 |

| Test System | AUC of viability dose-response curve |
| --- | --- |
| A253_SALIVARY_GLAND | 0.883 |
| A375_SKIN | 0.47 |
| A388_SKIN | 0.978 |
| A427_LUNG | 0.884 |
| A498_KIDNEY | 0.943 |
| A549_LUNG | 1 |
| A673_BONE | 1 |
| A704_KIDNEY | 0.942 |
| A1207_CENTRAL_NERVOUS_SYSTEM | 1 |
| A2058_SKIN | 1 |
| A2780_OVARY | 0.625 |
| ABC1_LUNG | 0.977 |
| ACCMESO1_PLEURA | 1 |
| ACHN_KIDNEY | 0.807 |
| AGS_STOMACH | 0.812 |
| ALLSIL_HAEMATOPOIETIC_AND_LYMPHOID_TISSUE | 0.917 |
| AM38_CENTRAL_NERVOUS_SYSTEM | 1 |
| AMO1_HAEMATOPOIETIC_AND_LYMPHOID_TISSUE | 0.46 |
| AN3CA_ENDOMETRIUM | 0.693 |
| ANGMCSS_CENTRAL_NERVOUS_SYSTEM | 1 |
| ASPC1_PANCREAS | 0.845 |
| AU565_BREAST | 1 |
| BC3C_URINARY_TRACT | 1 |
| BCPAP_THYROID | 0.885 |
| BDCM_HAEMATOPOIETIC_AND_LYMPHOID_TISSUE | 0.431 |

| Test System | AUC of viability dose-response curve |
| --- | --- |
| BECKER_CENTRAL_NERVOUS_SYSTEM | 0.88 |
| BEN_LUNG | 0.562 |
| BFTC905_URINARY_TRACT | 0.443 |
| BFTC909_KIDNEY | 1 |
| BHT101_THYROID | 0.581 |
| BHY_UPPER_AERODIGESTIVE_TRACT | 0.851 |
| BICR6_UPPER_AERODIGESTIVE_TRACT | 0.907 |
| BICR16_UPPER_AERODIGESTIVE_TRACT | 0.181 |
| BICR18_UPPER_AERODIGESTIVE_TRACT | 1 |
| BICR22_UPPER_AERODIGESTIVE_TRACT | 0.901 |
| BICR31_UPPER_AERODIGESTIVE_TRACT | 0.695 |
| BICR56_UPPER_AERODIGESTIVE_TRACT | 0.862 |
| BICR78_UPPER_AERODIGESTIVE_TRACT | 0.547 |
| BL2_HAEMATOPOIETIC_AND_LYMPHOID_TISSUE | 0.77 |
| BLUE1_HAEMATOPOIETIC_AND_LYMPHOID_TISSUE | 0.311 |
| BOKU_CERVIX | 0.581 |
| BT12_SOFT_TISSUE | 0.706 |
| BT16_SOFT_TISSUE | 1 |
| BT474_BREAST | 0.643 |
| BT549_BREAST | 1 |
| BV173_HAEMATOPOIETIC_AND_LYMPHOID_TISSUE | 0.271 |
| C4I_CERVIX | 0.999 |
| C32_SKIN | 0.562 |
| C33A_CERVIX | 1 |
| C75_LARGE_INTESTINE | 1 |

| Test System | AUC of viability dose-response curve |
| --- | --- |
| C80_LARGE_INTESTINE | 0.689 |
| C8166_HAEMATOPOIETIC_AND_LYMPHOID_TISSUE | 0.546 |
| CADOES1_BONE | 0.458 ± 0.12 |
| CAKI1_KIDNEY | 0.644 |
| CAL12T_LUNG | 0.645 |
| CAL27_UPPER_AERODIGESTIVE_TRACT | 0.961 |
| CAL29_URINARY_TRACT | 0.7 |
| CAL33_UPPER_AERODIGESTIVE_TRACT | 0.694 |
| CAL51_BREAST | 0.595 |
| CAL54_KIDNEY | 0.502 |
| CAL62_THYROID | 0.321 |
| CAL72_BONE | 0.839 |
| CAL78_BONE | 0.486 |
| CAL120_BREAST | 0.497 |
| CAL148_BREAST | 1 |
| CALU1_LUNG | 0.901 |
| CALU6_LUNG | 0.928 |
| CAMA1_BREAST | 0.746 |
| CAOV3_OVARY | 0.648 |
| CAPAN2_PANCREAS | 1 |
| CAS1_CENTRAL_NERVOUS_SYSTEM | 0.665 |
| CASKI_CERVIX | 0.376 |
| CBAGPN_BONE | 0.79 |
| CCFSTTG1_CENTRAL_NERVOUS_SYSTEM | 0.992 |
| CCK81_LARGE_INTESTINE | 0.86 |

| Test System | AUC of viability dose-response curve |
| --- | --- |
| CCLFPEDS0003T_SOFT_TISSUE | 0.392 |
| CCLP1_BILIARY_TRACT | 0.45 |
| CCSW1_BILIARY_TRACT | 0.832 |
| CFPAC1_PANCREAS | 1 |
| CH157MN_CENTRAL_NERVOUS_SYSTEM | 0.899 |
| CHAGOK1_LUNG | 0.748 |
| CHL1_SKIN | 0.148 |
| CHLA06ATRT_SOFT_TISSUE | 1 |
| CHLA10_BONE | 0.97 |
| CHLA15_AUTONOMIC_GANGLIA | 0.551 |
| CHLA57_BONE | 0.647 |
| CHLA200_CENTRAL_NERVOUS_SYSTEM | 0.168 |
| CI1_HAEMATOPOIETIC_AND_LYMPHOID_TISSUE | 0.674 |
| CJM_SKIN | 0.415 |
| CL11_LARGE_INTESTINE | 0.326 |
| CL34_LARGE_INTESTINE | 0.812 |
| CMLT1_HAEMATOPOIETIC_AND_LYMPHOID_TISSUE | 0.666 |
| COGAR359_SOFT_TISSUE | 1 |
| COGE352_BONE | 1 |
| COGN278_AUTONOMIC_GANGLIA | 0.345 |
| COLO320_LARGE_INTESTINE | 1 |
| COLO668_LUNG | 0.615 |
| COLO679_SKIN | 0.3 |
| COLO680N_OESOPHAGUS | 0.653 |
| COLO741_SKIN | 0.559 |

| Test System | AUC of viability dose-response curve |
| --- | --- |
| COLO783_SKIN | 0.837 |
| COLO792_SKIN | 0.804 |
| COLO800_SKIN | 0.67 |
| CORL23_LUNG | 1 |
| CORL88_LUNG | 0.612 |
| CORL105_LUNG | 0.747 |
| CORL279_LUNG | 1 |
| COV318_OVARY | 0.899 |
| COV362_OVARY | 0.887 |
| COV434_OVARY | 0.556 |
| COV644_OVARY | 0.92 |
| CW2_LARGE_INTESTINE | 1 |
| CW9019_SOFT_TISSUE | 0.735 |
| DANG_PANCREAS | 1 |
| DAOY_CENTRAL_NERVOUS_SYSTEM | 0.958 ± 0.059 |
| DBTRG05MG_CENTRAL_NERVOUS_SYSTEM | 0.854 |
| DEL_HAEMATOPOIETIC_AND_LYMPHOID_TISSUE | 1 |
| DETROIT562_UPPER_AERODIGESTIVE_TRACT | 0.68 |
| DKMG_CENTRAL_NERVOUS_SYSTEM | 0.733 |
| DL_SOFT_TISSUE | 0.471 |
